Test results reported in patent US20160000071A1, “PHOTODEGRADABLE, BIOCOMPATIBLE AND EFFICIENT NANO-ENCAPSULATED FORMULATION” (priority 2014, published 2016).

Key:
[1] = test system: newly-ecdysed fifth instar larvae of G. pyloalis; experiment: Leaf dip bioassay; type: in vivo, Glyphodes pyloalis Walker; conditions: Glyphodes pyloalis, foliar
Protocol: (§1) The insects used in the present application is Glyphodes pyloalis Walker (Lepidoptera: Pyralidae) which was collected from infested mulberry orchards in the vicinity of Rasht, Iran. Mass rearing of insects was carried out in the laboratory under controlled conditions at 25±1° C., 70±5% RH and 16:8 L:D. Newly-ecdysed fifth instar larvae of G. pyloalis were used for the bioassay experiments. The Glyphodes pyloalis Walker hereinafter is referred to as G. pyloalis.
The toxicity of the encapsulated imidacloprid diluted in water for the newly-ecdysed fifth instar larvae of G. pyloalis was evaluated using leaf dip bioassay. The technical imidacloprid was dissolved in acetone and diluted to generate 6 serial dilutions with distilled water. Mulberry leaf discs with diameters of 3.5 cm were prepared, so that each petiole was placed in a vial containing water for providing moisture to the leaf discs for several days. These discs were then immersed in the dilutions for 45 seconds. Mortality was assessed after the treated larvae were maintained at 25±1° C., 70±10 R.H. for 24, 48, 72, 96 and 120 hours.

[2] = test system: newly ecdysed fifth instar larvae of G. pyloalis; experiment: Topical bioassay; type: in vivo, Glyphodes pyloalis Walker; conditions: Glyphodes pyloalis
Protocol: as §1
To determine the efficacy of the encapsulated nano-IMI prepared using ethanol, a topical bioassay was performed. In the preliminary tests, 5 concentrations of bulk and nano-IMI were tested. […] Fifty larvae per concentration were used for all experiments and each experiment was replicated 4 times; 1 μl of the desired concentration was topically applied to the metathoracic tergum. The controls received 1 μl of ethanol in the same way. The treated larvae were allowed to eat fresh leaves. After 24, 48, 72 and 96 h, the numbers of dead larvae were recorded.

Compound: O=[N+]([O-])NC1=NCCN1Cc1ccc(Cl)nc1 [Imidacloprid]
- mortality at 50 ppm ([1]; 24 h after treatment): 2.5 ± 2%
- mortality at 50 ppm ([1]; 48 h after treatment): 15.6%
- mortality at 50 ppm ([1]; 72 h after treatment): 27%
- mortality at 50 ppm ([1]; 96 h after treatment): 42.5%
- mortality at 50 ppm ([1]; 120 h after treatment): 46.2 ± 2.39%
- mortality at 80 ppm ([1]; 24 h after treatment): 8.82%
- mortality at 80 ppm ([1]; 48 h after treatment): 23.8%
- mortality at 80 ppm ([1]; 72 h after treatment): 39.6 ± 3.33%
- mortality at 80 ppm ([1]; 96 h after treatment): 57.8 ± 3.17%
- mortality at 80 ppm ([1]; 120 h after treatment): 58.8 ± 3.75%
- mortality at 126 ppm ([1]; 24 h after treatment): 21.9 ± 3.07%
- mortality at 126 ppm ([1]; 48 h after treatment): 43.8 ± 2.39%
- mortality at 126 ppm ([1]; 72 h after treatment): 58.6 ± 3.41%
- mortality at 126 ppm ([1]; 96 h after treatment): 76.2 ± 3.17%
- mortality at 126 ppm ([1]; 120 h after treatment): 78.8 ± 3.75%
- mortality at 200 ppm ([1]; 24 h after treatment): 34.2 ± 2.09%
- mortality at 200 ppm ([1]; 48 h after treatment): 55%
- mortality at 200 ppm ([1]; 72 h after treatment): 71.7 ± 2.04%
- mortality at 200 ppm ([1]; 96 h after treatment): 78.8 ± 2.39%
- mortality at 200 ppm ([1]; 120 h after treatment): 80%
- mortality at 316 ppm ([1]; 24 h after treatment): 39.2 ± 4.13%
- mortality at 316 ppm ([1]; 48 h after treatment): 60%
- mortality at 316 ppm ([1]; 72 h after treatment): 75%
- mortality at 316 ppm ([1]; 96 h after treatment): 84.2 ± 3.37%
- mortality at 316 ppm ([1]; 120 h after treatment): 86.2 ± 2.39%
- mortality at 500 ppm ([1]; 24 h after treatment): 57.5 ± 2.04%
- mortality at 500 ppm ([1]; 48 h after treatment): 77.6 ± 4%
- mortality at 500 ppm ([1]; 72 h after treatment): 86.1 ± 1.63%
- mortality at 500 ppm ([1]; 96 h after treatment): 100%
- mortality at 500 ppm ([1]; 120 h after treatment): 100%
- mortality at 22 ppm ([2]; 24 h after treatment): 18.1%
- mortality at 22 ppm ([2]; 48 h after treatment): 20%
- mortality at 22 ppm ([2]; 72 h after treatment): 22%
- mortality at 22 ppm ([2]; 96 h after treatment): 24%
- mortality at 32 ppm ([2]; 24 h after treatment): 33%
- mortality at 32 ppm ([2]; 48 h after treatment): 35%
- mortality at 32 ppm ([2]; 72 h after treatment): 36.5%
- mortality at 32 ppm ([2]; 96 h after treatment): 38.2%
- mortality at 47.5 ppm ([2]; 24 h after treatment): 50%
- mortality at 47.5 ppm ([2]; 48 h after treatment): 52.1%
- mortality at 47.5 ppm ([2]; 72 h after treatment): 54%
- mortality at 47.5 ppm ([2]; 96 h after treatment): 56%
- mortality at 60 ppm ([2]; 24 h after treatment): 76%
- mortality at 60 ppm ([2]; 48 h after treatment): 78%
- mortality at 60 ppm ([2]; 72 h after treatment): 80.4%
- mortality at 60 ppm ([2]; 96 h after treatment): 82%
